Legend:
[1] = Oral bioavailability in Beagle dog at 3 mg/kg administered as single dose; assay type: ADME, organism-based, Canis lupus familiaris; conditions: in vivo
[2] = Volume of distribution at steady state in rat at 2.5 mg/kg, iv administered as single dose; assay type: ADME, organism-based; parameters: dose 2.5 mg/kg, route intravenous; conditions: in vivo, read-out: Vdss
[3] = AUC (0 to infinity) in Beagle dog at 3 mg/kg, po administered as single dose; assay type: ADME, organism-based, Canis lupus familiaris; parameters: time infinity, dose 3 mg/kg, route oral; conditions: plasma
[4] = Half life in rat at 2.5 mg/kg, iv administered as single dose; assay type: ADME, organism-based; parameters: dose 2.5 mg/kg, route intravenous; conditions: in vivo
[5] = AUC (0 to infinity) in Beagle dog at 1 mg/kg, iv administered as single dose; assay type: ADME, organism-based, Canis lupus familiaris; parameters: time infinity, dose 1 mg/kg, route intravenous; conditions: plasma
Canis familiaris = species: Canis familiaris; experiment: Plasma concentration in Beagle dog after 15 to 30 mins; assay type: ADME, organism-based, Canis lupus familiaris; conditions: in vivo
[6] = Half life in Beagle dog at 1 mg/kg, iv administered as single dose; assay type: ADME, organism-based, Canis lupus familiaris; parameters: dose 1 mg/kg, route intravenous; conditions: in vivo
[7] = AUC (0 to infinity) in rat at 2.5 mg/kg, iv administered as single dose; assay type: ADME, organism-based; parameters: time infinity, dose 2.5 mg/kg, route intravenous; conditions: plasma
[8] = Half life in rat at 10 mg/kg, po administered as single dose; assay type: ADME, organism-based; parameters: dose 10 mg/kg, route oral; conditions: in vivo
CYP2C19 = experiment: In vitro stability in presence of human CYP2C19 assessed as compound remaining at 1 uM after 1 hr; assay type: ADME; conditions: read-out: Stability
[9] = Systemic clearance in rat at 2.5 mg/kg, iv administered as single dose; assay type: ADME, organism-based; parameters: dose 2.5 mg/kg, route intravenous; conditions: in vivo
[10] = AUC in rat plasma at 30 mg/kg, po administered as single dose after 6 hrs; assay type: ADME, organism-based; parameters: time < 6 hr, dose 30 mg/kg, route oral
[11] = Metabolic stability in Beagle dog liver microsomes assessed as compound remaining after 30 mins; assay type: ADME, Canis lupus familiaris, Microsome; conditions: read-out: Stability
[12] = AUC (0 to infinity) in rat at 10 mg/kg, po administered as single dose; assay type: ADME, organism-based; parameters: time infinity, dose 10 mg/kg, route oral; conditions: plasma
[13] = Systemic clearance in Beagle dog at 1 mg/kg, iv administered as single dose; assay type: ADME, organism-based, Canis lupus familiaris; parameters: dose 1 mg/kg, route intravenous; conditions: in vivo
CYP3A4 = experiment: In vitro stability in presence of human CYP3A4 assessed as compound remaining at 1 uM after 1 hr; assay type: ADME; conditions: read-out: Stability
Rattus norvegicus = experiment: fAUC in rat plasma at 30 mg/kg, po administered as single dose after 6 hrs; assay type: ADME, organism-based; parameters: dose 30 mg/kg, route oral; conditions: in vivo
[14] = Half life in Beagle dog at 3 mg/kg, po administered as single dose; assay type: ADME, organism-based, Canis lupus familiaris; parameters: dose 3 mg/kg, route oral; conditions: in vivo
[15] = Metabolic stability in human liver microsomes assessed as compound remaining after 30 mins; assay type: ADME, Microsome; conditions: read-out: Stability
[16] = Oral bioavailability in rat at 10 mg/kg administered as single dose; assay type: ADME, organism-based; conditions: in vivo
[17] = Tmax in rat at 10 mg/kg, po administered as single dose; assay type: ADME, organism-based; parameters: dose 10 mg/kg, route oral; conditions: in vivo
[18] = Tmax in Beagle dog at 3 mg/kg, po administered as single dose; assay type: ADME, organism-based, Canis lupus familiaris; parameters: dose 3 mg/kg, route oral; conditions: in vivo
[19] = Metabolic stability in rat liver microsomes assessed as compound remaining after 30 mins; assay type: ADME, Microsome; conditions: read-out: Stability
[20] = Cmax in rat at 10 mg/kg, po administered as single dose; assay type: ADME, organism-based; parameters: dose 10 mg/kg, route oral; conditions: in vivo
[21] = Volume of distribution at steady state in Beagle dog at 1 mg/kg, iv administered as single dose; assay type: ADME, organism-based, Canis lupus familiaris; parameters: dose 1 mg/kg, route intravenous; conditions: in vivo, read-out: Vdss
CYP2D6 = experiment: In vitro stability in presence of human CYP2D6 assessed as compound remaining at 1 uM after 1 hr; assay type: ADME; conditions: read-out: Stability
[22] = Cmax in Beagle dog at 3 mg/kg, po administered as single dose; assay type: ADME, organism-based, Canis lupus familiaris; parameters: dose 3 mg/kg, route oral; conditions: in vivo
[23] = AUC in rat brain raphe magnus at 30 mg/kg, po administered as single dose after 6 hrs; assay type: ADME, organism-based; parameters: dose 30 mg/kg, route oral; conditions: read-out: Drug uptake

CCN(CC)C(=O)c1ccc(C2=CC3(CCNCC3)Oc3ccccc32)c(O)c1 [ADL-5747 FREE BASE]
bioavailability [1]: 54.5%
Vd [2]: 18.1 L/kg
AUC(0-inf) [3]: 4200 ng·h/mL
half-life [4]: 5.3 h
AUC(0-inf) [5]: 2640 ng·h/mL
Cp (Canis familiaris): 808 ng/mL
half-life [6]: 12.2 h
AUC(0-inf) [7]: 780 ng·h/mL
half-life [8]: 4.9 h
remaining at 1 h, 1 µM (CYP2C19): 78.4%
clearance [9]: 55 mL/min/kg
AUC at 6 h [10]: 4610 ng·h/mL
remaining at 0.5 h [11]: 63.9%
AUC(0-inf) [12]: 1150 ng·h/mL
clearance [13]: 6.33 mL/min/kg
remaining at 1 h, 1 µM (CYP3A4): 22.5%
fAUC (Rattus norvegicus): 990 ng·h/mL
half-life [14]: 7.7 h
remaining at 0.5 h [15]: 94.5%
bioavailability [16]: 37.6%
Tmax [17]: 1.3 h
Tmax [18]: 0.4 h
remaining at 0.5 h [19]: 59.7%
Cmax [20]: 246 ng/mL
Vd [21]: 5.1 L/kg
remaining at 1 h, 1 µM (CYP2D6): 63.2%
Cmax [22]: 852 ng/mL
AUC at 6 h [23]: 105 ng·h/mL
